Experiments:
immune system = experiment: Immune parameters and immune function (blastogenesis, mixed lymphocyte response) after JP-8 exposure; assay type: in vivo, C57B16 mice
Protocol: (§1) At 24 hours after the last exposure, the animals were sacrificed and the effects of exposure on the immune system examined. Immune organs (spleen, thymus, blood, lymph nodes and bone marrow) were recovered and analyzed for effects on organ weight, total cell numbers, immune cell populations (by differentials), and lymphocyte subpopulations (by flow cytometry). Assays were also performed to examine the effects of exposure on immune function. […] Similar effects on immune cell subpopulations were also observed in lymph nodes. In the thymus it appeared that the immature CD4^+ CD8^+ cells were differentially lost due to exposure. […] However, these effects are prevented or ameliorated by treatment of the animals with Substance P.
Blastogenesis and Mixed lymphocyte response (MLR) assays: Blastogenesis and MLR assays are set up in 96 well microtitre plated in replicates of 6. Responder cells are plated at 1×10^5 cells/well and are stimulated as indicated (with either media, alloantigen, growth factors or mitogens). After 72 hours the plates are pulsed with 1 uCi/well of ^3 H-thymidine for 18 hours. The wells are then harvested using a Ph.D. cell harvester, the filters dried and scintillation counting performed. The data is presented as the stimulated dpm and is represented as the stimulation index (SI) (Harris et al., Proc. Natl. Acad Sci. USA 89:10006 (1992)).

[1] = system: LP-BM5 murine leukemia retrovirus; experiment: Mouse AIDS model, spleen changes and total cell numbers; assay type: in vivo, C57BL6 mice
Protocol: (§2) C57BL6 mice, average weight of 25-30 grams, were infected with the LP-BM5 murine leukemia retrovirus to simulate the human AIDS virus. […] The mice were divided into two groups; LP-BM5 virus only and LP-BM5 virus +substance P aerosol therapy at 1 μM concentration. The mice were killed at 4 and 8 weeks post-inoculation.

splenic T cells = experiment: Mitogenesis of spleen T cells (ConA, 3H-thymidine) from LP-BM5-infected mice given SP aerosol; assay type: in vivo, C57BL6 mice
Protocol: as §2
The proliferation of splenic B and T cells induced by mitogens was determined by incorporation of radioactive thymidine. Splenocytes in 0.1 ml of cell culture medium (1×10^7 cells/ml) were cultured in 96-well flat-bottom cultured plates with ConA and lipopolysaccharide, 5 micrograms/ml). […] After 4 hours for radioactive thymidine uptake, the cells were harvested by a cell sample harvester. Radioactivity was determined by a liquid scintillation counter (Tri-Carb, 2200CA). The T and B cell mitogenesis values were recorded as counts per min in 1×10^7 cells/ml.

[2] = system: immune system organs (spleen, lymph nodes and thymus); experiment: Organ Weight and Total Cell Recovery, JP-8 exposed mice; assay type: in vivo, C57B16 mice; parameters: Spleen Weight / Thymus Weight: unit not given here
Protocol: as §1
Organ Weight and Total Cell Recovery: For each of the immune system organs (spleen, lymph nodes and thymus) the wet weight is determined after removal using a microbalance. After processing of the organs into single cell suspensions the cell numbers and viabilities are determined using trypan blue staining. Histochemical differentials are performed at this time. Cell numbers and viabilities are again determined after centrifugation of the cell suspensions through density gradients to obtain mononuclear cells.

splenic B cells = experiment: Mitogenesis of spleen B cells (lipopolysaccharide, 3H-thymidine) from LP-BM5-infected mice given SP aerosol; assay type: in vivo, C57BL6 mice; conditions: LP-BM5 virus + SP aerosol 1 μM
Protocol: as §2
The proliferation of splenic B and T cells induced by mitogens was determined by incorporation of radioactive thymidine. Splenocytes in 0.1 ml of cell culture medium (1×10^7 cells/ml) were cultured in 96-well flat-bottom cultured plates with ConA and lipopolysaccharide, 5 micrograms/ml). The cells were incubated at 37° C., 5% CO2 incubator for 72 hours for ConA-induced T cell proliferation, and then pulsed with ^3 H-thymidine (1 microCurie/well). After 4 hours for radioactive thymidine uptake, the cells were harvested by a cell sample harvester. Radioactivity was determined by a liquid scintillation counter (Tri-Carb, 2200CA). The T and B cell mitogenesis values were recorded as counts per min in 1×10^7 cells/ml.

[3] = system: melanoma B16 cancer cells; experiment: B16 melanoma massive challenge, survival; assay type: in vivo, mice; conditions: tumor-challenged mammals, aerosol therapy
From the text: The mice were infected with 1×10^5 […] melanoma B16 cancer cells by tail vein injection.

[4] = system: melanoma B16 cancer cells; experiment: B16 melanoma tail vein injection, tumor colonies in both lungs; assay type: in vivo, mice; conditions: for mean number of tumor colonies observed in both lungs: 1×10^4 B16 cells/mouse, 4 weeks post-injection
From the text: The mice were infected with syngeneic […] melanoma B16 cancer cells by tail vein injection. The dose was 1×10^4 B16 tumor cells/mouse. […] The second group of mice was given their substance P aerosol therapy starting one week after the injection of the B16 cells. The aerosol therapy lasted for one week. Both groups of mice and their corresponding controls (injection with B16 cells and no substance P therapy) were killed at 4 weeks post-injection with B16 cells. The data is presented as the mean number of tumor colonies observed in both lungs.

[5] = LP-BM5 virus + SP aerosol 1 μM, 4 weeks after infection, mean (SEM)
[6] = JP-8 dose 0 + SP or antagonist aerosol
[7] = JP-8 dose 1000 + SP or antagonist aerosol
[8] = JP-8 dose 1000 + nSP (1 nanomolar substance P)
[9] = dose printed 100 + nSP (1 nanomolar substance P)
[10] = 4 weeks after infection, mean (SEM)

Substance P [SP]
deleterious effects of chronic JP-8 jet fuel exposure to the immune system (immune system; Substance P aerosol therapy): reversed and/or prevented | majority of the effects of JP-8 jet fuel exposure on the immune system (immune system; Substance P at both 1 uM and 1 nM doses): could be significantly reversed | effects of JP-8 exposure on all measured immune parameters (immune system; mice exposed to 500, 1000 or 2500 mg aerosolized JP-8, 7 days 1 hour/day, treated with Substance P): invariably reversed the effects on all measured parameters of JP-8 exposure to almost normal levels | changes in the mouse spleens ([1]; LP-BM5 mouse model, SP aerosol therapy): caused significant changes in the mouse spleens | total cell numbers (spleen) versus LP-BM5 group ([1]; SP+Virus Group, 4 weeks after infection): not accompanied by an increase in total cell numbers | Spleen T Cell Mitogenesis, 24 Hours in Culture (splenic T cells; LP-BM5 virus + SP aerosol 1 μM 3 days/week, 4 weeks after infection, mean (SEM)): 2963 (56) counts per min | Spleen T Cell Mitogenesis, 48 Hours in Culture (splenic T cells; [5]): 2769 (23) counts per min | Spleen T Cell Mitogenesis, 72 hours in culture (splenic T cells; [5]): 4362 (69) counts per min | Spleen T Cell Mitogenesis, 72 hours in culture (splenic T cells; LP-BM5 virus + SP aerosol 1 μM, 8 weeks post-infection): 3127 (77) counts per min | BM Cell Number [2, 6]: 9 | Spleen Cell Number [2, 6]: 30 | Spleen Weight [2, 6]: 0.10 | Thymus Cell Number [2, 6]: 18 | Thymus Weight [2, 6]: 0.04 | BM Cell Number ([2]; JP-8 dose 250 + SP aerosol): 23 | Spleen Cell Number ([2]; JP-8 dose 250 + SP aerosol): 40 | Spleen Weight ([2]; JP-8 dose 250 + SP aerosol): 0.16 | Thymus Cell Number ([2]; JP-8 dose 250 + SP aerosol): 20 | Thymus Weight ([2]; JP-8 dose 250 + SP aerosol): 0.06 | BM Cell Number [2, 7]: 21 | LN Cell Number [2, 7]: 5.0 | Spleen Cell Number [2, 7]: 72 | Spleen Weight [2, 7]: 0.14 | Thymus Cell Number [2, 7]: 78 | Thymus Weight [2, 7]: 0.11 | BM Cell Number [2, 8]: 31 | Thymus Cell Number [2, 8]: 78 | Thymus Weight [2, 8]: 0.04 | BM Cell Number ([2]; JP-8 dose 2500 + SP aerosol): 19 | LN Cell Number ([2]; JP-8 dose 2500 + SP aerosol): 5.0 | Spleen Cell Number ([2]; JP-8 dose 2500 + SP aerosol): 87 | Spleen Weight ([2]; JP-8 dose 2500 + SP aerosol): 0.10 | Thymus Cell Number ([2]; JP-8 dose 2500 + SP aerosol): 96 | Thymus Weight ([2]; JP-8 dose 2500 + SP aerosol): 0.08 | Spleen Cell Number [2, 9]: 58 | Spleen Weight [2, 9]: 0.11 | Spleen B Cell Mitogenesis, 24 Hours in Culture (splenic B cells; [10]): 2063 (448) counts per min | Spleen B Cell Mitogenesis, 48 Hours in Culture (splenic B cells; [10]): 1369 (231) counts per min | Spleen B Cell Mitogenesis, 72 hours in culture (splenic B cells; [10]): 1642 (158) counts per min | Spleen B Cell Mitogenesis, 72 hours in culture (splenic B cells; 8 weeks post-infection, not significant): 3227 (854) counts per min | survival time [3]: enhance survival time | mean number of tumor colonies observed in both lungs ([4]; 1 μM SP aerosol 15 min/day 7 days starting immediately after injection): 39 | mean number of tumor colonies observed in both lungs ([4]; 1 μM SP aerosol for one week starting one week after injection): 1 | rate of tumor colonization ([4]; tumor-challenged mammals, aerosol therapy): reduce the rate of tumor colonization
